Each molecule was assayed against USP1 (Homo sapiens, UniProt O94782) (assay: Biochemical Assay for USP1 Inhibition (Ub-Rho 110 fluorescence)). Conditions: Table 5; 30 min preincubation, Enzyme 0.025 nM, Substrate Ub-Rho 110 25 nM; read-out: IC50 (μm).
Method: The assay was performed in a final volume of 6 μL in assay buffer containing 20 mM Tris-HCl pH 8.0, (1 M Tris-HCl, pH 8.0 solution; Corning 46-031-CM), 1 mM GSH (L-glutathione reduced, Sigma-Aldrich, G4251-100G), 0.03% BGG (0.22 μM filtered, Sigma, G7516-25G), and 0.01% Triton X-100 (Sigma, T9284-10L). Nanoliter quantities of 10-point, 3-fold serial dilution in DMSO were pre-dispensed into 1536 assay plates (Corning, #3724BC) for a final test concentration of 25 μM to 1.3 nM, top to lowest dose, respectively. Concentration and incubation times were optimized for the maximal signal-to-background while maintaining initial velocity conditions at a fixed substrate concentration (<<Km). 3 μL of 2× Enzyme was added to assay plates (pre-stamped with compound), preincubated for 30 min, and then treated with 3 μL of 2× Substrate (Ub-Rho 110, UbiQ-126). Final concentrations of Enzyme and Substrate are 0.025 nM and 25 nM, respectively. Plates were read using a kinetic protocol continuously for 11 min on the Envision (Perkin Elmer) or PheraSTAR (BMG), excitation at 485 nm and emission at 535 nm or excitation at 520 nm and emission at 590 nm. For all assay formats, data were reported as percent inhibition compared with control wells based on the following equation: % inh=100*([…]), where FLU=measured Fluorescence, AveLow=average Fluorescence of no enzyme control (n=32), and AveHigh=average Fluorescence of DMSO control (n=32). IC50 values were determined by curve fitting of the standard 4 parameter logistic fitting algorithm included in the Activity Base software package: TDBS XE Designer Model205. Data is fitted using the Levenburg Marquardt algorithm.
In Table 5, absolute stereochemistry has not been determined for some Compounds. Accordingly, assignment ofany Compounds as the “R” or “S” stereoisomer is arbitrary, unless otherwise noted. In some cases, Compounds are labeled with “1st eluting isomer”, “2nd eluting isomer”, etc. based on the purification method used to separate the stereoisomers.

USP1, sequence (O94782 whole entry): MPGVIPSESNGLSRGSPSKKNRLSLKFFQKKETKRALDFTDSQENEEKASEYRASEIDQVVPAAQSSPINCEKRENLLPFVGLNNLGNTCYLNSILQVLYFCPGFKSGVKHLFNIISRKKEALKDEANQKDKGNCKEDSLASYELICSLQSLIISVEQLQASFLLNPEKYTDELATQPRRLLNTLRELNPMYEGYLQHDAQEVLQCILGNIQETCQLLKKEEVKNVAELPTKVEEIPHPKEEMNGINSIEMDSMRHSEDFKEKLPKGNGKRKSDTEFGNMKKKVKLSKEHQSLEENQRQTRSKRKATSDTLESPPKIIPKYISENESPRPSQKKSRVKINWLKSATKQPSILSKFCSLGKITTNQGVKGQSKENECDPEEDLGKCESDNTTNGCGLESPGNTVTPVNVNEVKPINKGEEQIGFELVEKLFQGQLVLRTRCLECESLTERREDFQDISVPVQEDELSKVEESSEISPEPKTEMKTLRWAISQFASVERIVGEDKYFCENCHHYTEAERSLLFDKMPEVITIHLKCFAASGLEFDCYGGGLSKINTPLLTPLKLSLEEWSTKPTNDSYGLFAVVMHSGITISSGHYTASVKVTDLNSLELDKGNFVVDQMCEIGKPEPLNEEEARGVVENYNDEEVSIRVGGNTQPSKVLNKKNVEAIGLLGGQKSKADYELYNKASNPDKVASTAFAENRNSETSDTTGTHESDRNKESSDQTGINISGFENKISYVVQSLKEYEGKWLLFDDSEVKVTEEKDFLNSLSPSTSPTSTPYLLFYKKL
USP1, sequence (Q8TAF3 whole entry partner): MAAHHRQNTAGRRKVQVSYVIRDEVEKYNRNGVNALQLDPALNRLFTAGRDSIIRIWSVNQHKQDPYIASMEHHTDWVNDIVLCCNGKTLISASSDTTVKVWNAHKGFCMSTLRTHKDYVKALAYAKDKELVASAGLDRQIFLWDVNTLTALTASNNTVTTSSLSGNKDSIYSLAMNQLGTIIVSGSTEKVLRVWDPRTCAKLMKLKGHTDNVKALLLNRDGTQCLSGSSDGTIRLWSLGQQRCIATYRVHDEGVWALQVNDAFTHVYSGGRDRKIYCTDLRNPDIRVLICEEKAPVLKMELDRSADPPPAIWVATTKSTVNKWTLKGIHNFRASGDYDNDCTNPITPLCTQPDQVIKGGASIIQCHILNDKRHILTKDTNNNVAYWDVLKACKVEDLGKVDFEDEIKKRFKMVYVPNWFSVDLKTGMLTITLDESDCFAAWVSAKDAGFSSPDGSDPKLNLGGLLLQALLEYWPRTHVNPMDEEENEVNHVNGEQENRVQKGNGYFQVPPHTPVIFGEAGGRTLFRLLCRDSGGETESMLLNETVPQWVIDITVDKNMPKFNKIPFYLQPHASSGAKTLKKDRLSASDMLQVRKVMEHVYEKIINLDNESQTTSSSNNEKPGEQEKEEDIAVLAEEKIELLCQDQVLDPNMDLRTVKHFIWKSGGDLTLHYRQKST

For `Cc1nc(-c2cccnc2C(C)C)c2n1CCN(c1ccc(-c3cnn(C4COC4)c3)cc1)C2` [Compound 71, 3-(3-methyl-7-{4-[1-(oxetan-3-yl)-1H-pyrazol-4-yl]phenyl}-5H,6H,7H,8H-imidazo[1,5-a]pyrazin-1-yl)-2-(propan-2-yl)pyridine], which IC50 is on record?
Its IC50 is over 25 µM.

Which IC50 does the source give for `Cc1nc(-c2cccnc2OC(C)C)c2n1CCN(c1ccc(-c3nc(C(F)(F)F)cn3C)cc1)C2` [Compound 20, 3-(3-methyl-7-{4-[1-methyl-4-(trifluoromethyl)-1H-imidazol-2-yl]phenyl}-5H,6H,7H,8H-imidazo[1,5-a]pyrazin-1-yl)-2-(propan-2-yloxy)pyridine] here?
The IC50 was at most 1 µM.

Which IC50 does the source give for `CNC(=O)c1ccc(N2CCn3c(C)nc(-c4cccnc4C(C)C)c3C2)c(F)c1` [Compound 48, 3-fluoro-N-methyl-4-{3-methyl-1-[2-(propan-2-yl)pyridin-3-yl]-5H,6H,7H,8H-imidazo[1,5-a]pyrazin-7-yl}benzamide] here?
The IC50 was over 25 µM.

For `Cc1nc(-c2cccnc2C(C)C)c2n1CCN(c1ccc(NC(=O)C3CC3)cc1)C2` [Compound 59, N-(4-{3-methyl-1-[2-(propan-2-yl)pyridin-3-yl]-5H,6H,7H,8H-imidazo[1,5-a]pyrazin-7-yl}phenyl)cyclopropanecarboxamide], which IC50 is on record?
Its IC50 is 1 to 10 µM.

How did the IC50 turn out when `Cc1nc(-c2cccnc2C(C)C)c2n1CCN(c1ccc(C(=O)N(C)C)cc1F)C2` [Compound 49, 3-fluoro-N,N-dimethyl-4-{3-methyl-1-[2-(propan-2-yl)pyridin-3-yl]-5H,6H,7H,8H-imidazo[1,5-a]pyrazin-7-yl}benzamide] was run?
The IC50 was 10 to 25 µM.

Which IC50 does the source give for `Cc1nc(-c2cccnc2C(C)C)c2n1CCN(c1ccc(C3=CCON3)cc1)C2` [Compound 32, 3-{7-[4-(2,5-dihydro-1,2-oxazol-3-yl)phenyl]-3-methyl-5H,6H,7H,8H-imidazo[1,5-a]pyrazin-1-yl}-2-(propan-2-yl)pyridine] here?
Its IC50 is 1 to 10 µM.

How did the IC50 turn out when `Cc1nc(-c2cccnc2C(C)C)c2n1CCN(c1ccc(-c3nnn(C)n3)cc1)C2` [Compound 40, 3-{3-methyl-7-[4-(2-methyl-2H-1,2,3,4-tetrazol-5-yl)phenyl]-5H,6H,7H,8H-imidazo[1,5-a]pyrazin-1-yl}-2-(propan-2-yl)pyridine] was run?
The IC50 was 1 to 10 µM.

With `Cc1nc(-c2cccnc2C(C)C)c2n1CCN(c1ccc(-c3nc(C(F)(F)F)cn3C)cc1)C2C` (stereo not drawn) [Compound 7, 3-(3,8-dimethyl-7-{4-[1-methyl-4-(trifluoromethyl)-1H-imidazol-2-yl]phenyl}-5H,6H,7H,8H-imidazo[1,5-a]pyrazin-1-yl)-2-(propan-2-yl)pyridine] as the molecule, how does the IC50 read?
The IC50 was at most 1 µM.

`Cc1nc(-c2cccnc2C(C)C)c2n1CCN(c1ccc(-c3nc(C4CC4)cn3C)cc1)C2` [Compound 80, 3-{7-[4-(4-cyclopropyl-1-methyl-1H-imidazol-2-yl)phenyl]-3-methyl-5H,6H,7H,8H-imidazo[1,5-a]pyrazin-1-yl}-2-(propan-2-yl)pyridine] was tested. Which IC50 did it give?
The IC50 was at most 1 µM.

Which IC50 does the source give for `Cc1nnnn1-c1ccc(N2CCn3c(C)nc(-c4cccnc4C(C)C)c3C2)cc1` [Compound 39, 3-{3-methyl-7-[4-(5-methyl-1H-1,2,3,4-tetrazol-1-yl)phenyl]-5H,6H,7H,8H-imidazo[1,5-a]pyrazin-1-yl}-2-(propan-2-yl)pyridine] here?
The IC50 was over 25 µM.

With `Cc1nc(-c2cccnc2C(C)C)c2n1CCN(c1ccc(N3CCC(O)C3)cc1)C2` (stereo not drawn) [Compound 36, 1-(4-{3-methyl-1-[2-(propan-2-yl)pyridin-3-yl]-5H,6H,7H,8H-imidazo[1,5-a]pyrazin-7-yl}phenyl)pyrrolidin-3-ol] as the molecule, how does the IC50 read?
Its IC50 is 10 to 25 µM.

Which IC50 does the source give for `Cc1nc(-c2cccnc2C(C)C)c2n1CCN(c1ccc(N3CCCC3=O)cc1)C2` [Compound 43, 1-(4-{3-methyl-1-[2-(propan-2-yl)pyridin-3-yl]-5H,6H,7H,8H-imidazo[1,5-a]pyrazin-7-yl}phenyl)pyrrolidin-2-one] here?
The IC50 was 1 to 10 µM.

With `Cc1nc(-c2cccnc2OC(F)F)c2n1CCN(c1ccc(-c3nc(C(F)(F)F)cn3C)cc1)C2` [Compound 15, 2-(difluoromethoxy)-3-(3-methyl-7-{4-[1-methyl-4-(trifluoromethyl)-1H-imidazol-2-yl]phenyl}-5H,6H,7H,8H-imidazo[1,5-a]pyrazin-1-yl)pyridine] as the molecule, how does the IC50 read?
The IC50 was at most 1 µM.

Which IC50 does the source give for `Cc1cnc(-c2ccc(N3CCn4c(C)nc(-c5cccnc5C(C)C)c4C3)cc2)o1` [Compound 65, 3-{3-methyl-7-[4-(5-methyl-1,3-oxazol-2-yl)phenyl]-5H,6H,7H,8H-imidazo[1,5-a]pyrazin-1-yl}-2-(propan-2-yl)pyridine] here?
Its IC50 is at most 1 µM.

With `Cc1nc(-c2cccnc2C(C)C)c2n1C(C)CN(c1ccc(-c3nc(C(F)(F)F)cn3C)cc1)C2` (single isomer, unassigned) [Compound 72-1, 3-[-3,5-dimethyl-7-{4-[1-methyl-4-(trifluoromethyl)-1H-imidazol-2-yl]phenyl}-5H,6H,7H,8H-imidazo[1,5-a]pyrazin-1-yl]-2-(propan-2-yl)pyridine] as the molecule, how does the IC50 read?
The IC50 was at most 1 µM.

`Cc1nc(-c2cccnc2C(C)C)c2n1CCN(c1ccc(C(=O)NCC3CC3)cc1)C2` [Compound 57, N-(cyclopropylmethyl)-4-{3-methyl-1-[2-(propan-2-yl)pyridin-3-yl]-5H,6H,7H,8H-imidazo[1,5-a]pyrazin-7-yl}benzamide] was tested. Which IC50 did it give?
The IC50 was over 25 µM.

For `Cc1nc(-c2cccnc2C(C)C)c2n1CCN(c1ccc(-c3nccn3C)cc1)C2` [Compound 14, 3-{3-methyl-7-[4-(1-methyl-1H-imidazol-2-yl)phenyl]-5H,6H,7H,8H-imidazo[1,5-a]pyrazin-1-yl}-2-(propan-2-yl)pyridine], which IC50 is on record?
The IC50 was 1 to 10 µM.

How did the IC50 turn out when `Cc1nc(-c2cccnc2C(C)C)c2n1CCN(c1cccc(C(=O)N3CCC[C@@H]3C)c1)C2` [Compound 62, 3-(3-methyl-7-{3-[(2S)-2-methylpyrrolidine-1-carbonyl]phenyl}-5H,6H,7H,8H-imidazo[1,5-a]pyrazin-1-yl)-2-(propan-2-yl)pyridine] was run?
The IC50 was over 25 µM.

With `Cc1nc(-c2cccnc2OC(F)F)c2n1CCN(c1ccc(-n3ccc(C(F)(F)F)n3)cc1)C2` [Compound 78, 2-(difluoromethoxy)-3-(3-methyl-7-{4-[3-(trifluoromethyl)-1H-pyrazol-1-yl]phenyl}-5H,6H,7H,8H-imidazo[1,5-a]pyrazin-1-yl)pyridine] as the molecule, how does the IC50 read?
The IC50 was at most 1 µM.

For `Cc1nc(-c2ccccc2C(C)C)c2n1CCN(c1ccc(-c3nc(C(F)(F)F)cn3C)cc1)C2` [Compound 3, 1-methyl-2-(4-{3-methyl-1-[2-(propan-2-yl)phenyl]-5H,6H,7H,8H-imidazo[1,5-a]pyrazin-7-yl}phenyl)-4-(trifluoromethyl)-1H-imidazole], which IC50 is on record?
The IC50 was at most 1 µM.

Which IC50 does the source give for `Cc1nnc(-c2ccc(N3CCn4c(C)nc(-c5cccnc5C(C)C)c4C3)cc2)o1` [Compound 44, 3-{3-methyl-7-[4-(5-methyl-1,3,4-oxadiazol-2-yl)phenyl]-5H,6H,7H,8H-imidazo[1,5-a]pyrazin-1-yl}-2-(propan-2-yl)pyridine] here?
Its IC50 is 1 to 10 µM.

Which IC50 does the source give for `Cc1nc(-c2cccnc2C(C)C)c2n1CCN(c1ccc(-n3cccn3)cc1)C2` [Compound 9, 3-{3-methyl-7-[4-(1H-pyrazol-1-yl)phenyl]-5H,6H,7H,8H-imidazo[1,5-a]pyrazin-1-yl}-2-(propan-2-yl)pyridine] here?
The IC50 was 1 to 10 µM.

`Cc1ccc(N2CCn3c(C)nc(-c4cccnc4C(C)C)c3C2)cc1` [Compound 21, 3-[3-methyl-7-(4-methylphenyl)-5H,6H,7H,8H-imidazo[1,5-a]pyrazin-1-yl]-2-(propan-2-yl)pyridine] was tested. Which IC50 did it give?
Its IC50 is 10 to 25 µM.

`Cc1cc(N2CCn3c(C)nc(-c4cccnc4C(C)C)c3C2)ccc1N1CCCC1=O` [Compound 35, 1-(2-methyl-4-{3-methyl-1-[2-(propan-2-yl)pyridin-3-yl]-5H,6H,7H,8H-imidazo[1,5-a]pyrazin-7-yl}phenyl)pyrrolidin-2-one] was tested. Which IC50 did it give?
The IC50 was over 25 µM.

Which IC50 does the source give for `Cc1nc(-c2cccnc2C(C)C)c2n1CC(C)N(c1ccc(-c3nc(C(F)(F)F)cn3C)cc1)C2` (single isomer, unassigned) [Compound 8-1, 3-[3,6-dimethyl-7-{4-[1-methyl-4-(trifluoromethyl)-1H-imidazol-2-yl]phenyl}-5H,6H,7H,8H-imidazo[1,5-a]pyrazin-1-yl]-2-(propan-2-yl)pyridine] here?
Its IC50 is at most 1 µM.

Same assay, conditions: Table 6, additional compounds; 30 min preincubation, Enzyme 0.025 nM, Substrate Ub-Rho 110 25 nM; read-out: IC50

`Cc1nc(-c2cccnc2C(C)C)c2n1CC(=O)N(c1ccc(-c3nc(C(F)(F)F)cn3C)cc1)C2` [Compound C-3, 1-(2-isopropylpyridin-3-yl)-3-methyl-7-(4-(1-methyl-4-(trifluoromethyl)-1H-imidazol-2-yl)phenyl)-7,8-dihydroimidazo[1,5-a]pyrazin-6(5H)-one] was tested. Which IC50 did it give?
The IC50 was over 25 µM.

Which IC50 does the source give for `Cc1nc(-c2cccnc2C(C)C)c2n1CCCN(Cc1ccc(-c3nc(C(F)(F)F)cn3C)cc1)C2` [Compound C-2, 1-(2-isopropylpyridin-3-yl)-3-methyl-8-(4-(1-methyl-4-(trifluoromethyl)-1H-imidazol-2-yl)benzyl)-6,7,8,9-tetrahydro-5H-imidazo[1,5-a][1,4]diazepine] here?
The IC50 was 1 to 10 µM.

From patent publication US20220073525A1, “COMPOSITIONS FOR INHIBITING UBIQUITIN SPECIFIC PROTEASE 1” (FORMA Therapeutics, Inc., priority 2019, published 2022)
